{"source": "patent US20240238218A1", "about": "“[…] A […] ACTIVE COMPOUND AND METHOD OF PREPARATION THEREOF” (GW Research Limited, priority 2021, published 2024)", "key": {"[1]": {"tested_on": "mouse model of generalised seizure (tonic hind limb extensor convulsions)", "experiment": "Maximal electroshock seizure threshold (MEST) test in the mouse", "description": "The efficacy of the novel resorcinol according to the compound of Formula I was tested in a mouse model of generalised seizure, the maximal electroshock seizure threshold (MEST) test.\n(§1) In the MEST test the ability of a drug to alter the seizure threshold current required to induce hind limb tonic extensor convulsions is measured according to an “up and down” method of shock titration (Kimball et al., 1957). An increase in seizure threshold is indicative of anti-convulsant effect.\n(§2) The ability of a test compound to alter the stimulus intensity, expressed as current (mA), required to induce the presence of tonic hind limb extensor convulsions, is assessed in the MEST.\n(§3) All animals were weighed at the beginning of the study and randomly assigned to treatment groups based on a mean distribution of body weight across groups.\nThe first animal within a treatment group was given a shock at the expected or estimated CC50 current. For subsequent animals, the current was lowered or raised depending on the convulsions outcome from the preceding animal, in intervals of 5 mA.\n(§4) Data generated from each treatment group were used to calculate the CC50±SEM values for the treatment group.\nVehicle: (5% ethanol, 5% Kolliphor® EL, 90% Saline) was prepared as follows: 2 mL of ethanol, 2 mL of Kolliphor® EL were warmed to 60° C., in 36 mL of saline (1:1:18).\nThe test compound, described herein as Compound I, is as shown as Formula I. Test compound was administered at 1, 5, 20, 50, 100 and 200 mg/kg (i.p.) in a 1:2:17 ethanol:solutol:0.9% saline formulation.\n(§5) The data for each treatment group were recorded as the number of +'s and 0's at each current level employed and this information is then used to calculate the CC50 value (current required for 50% of the animals to show seizure behaviour)±standard error.\n(§6) Test compound effects were also calculated as percentage change in CC50 from the vehicle control group.\n(§7) Significant difference between drug-treated animals and controls were assessed according to Litchfield and Wilcoxon (1949)."}, "[2]": {"tested_on": "mouse model of generalised seizure (tonic hind limb extensor convulsions)", "experiment": "mini-MEST (maximal electroshock seizure threshold, minimal sample sizes) test in the mouse", "settings": "50 mg/kg i.p., 30 min post dose", "description": "The maximal electroshock seizure threshold (MEST) test is widely utilized preclinically to evaluate pro- or anti-convulsant properties of test compounds (Loscher et al., 1991).\nas §1, §2, §3\nThe first animal within a treatment group was given a shock at the expected or estimated CC50 current. For subsequent animals, the current was lowered or raised depending on the convulsions outcome from the preceding animal in log scale intervals.\nas §4\nVehicle: (5% ethanol, 10% solutol in 85% Saline) was prepared as follows: 1 mL of ethanol, 2 mL of solutol were warmed to 60° C., in 17 mL of saline (1:2:17).\nThe test compound, described herein as Compound I, is as shown as Formula I. Test compound was administered at 50 mg/kg (i.p.) in a 1:2:17 ethanol:solutol:0.9% saline formulation.\nas §5, §6, §7"}, "[3]": {"settings": "20 mg/kg i.p., 30 min post dose"}, "[4]": {"settings": "50 mg/kg i.p., 30 min post dose"}, "[5]": {"settings": "100 mg/kg i.p., 60 min post dose"}, "[6]": {"settings": "200 mg/kg i.p., 60 min post dose"}}}
{"molecule": "C=C(C)[C@@H]1CC(O)C(C)=C[C@H]1c1c(O)cc(Br)cc1O", "note": "(single isomer, unassigned) [Compound I]", "values": [{"measurement": "% change from vehicle (CC50)", "setting": "[1]; 1 mg/kg i.p., 15 min post dose", "value": 32, "unit": "%"}, {"measurement": "CC50 +/− SEM", "setting": "[1]; 1 mg/kg i.p., 15 min post dose", "value": "31.3 ± 1.5", "unit": "mA"}, {"measurement": "% change from vehicle (CC50)", "setting": "[1]; 5 mg/kg i.p., 15 min post dose", "value": 45, "unit": "%"}, {"measurement": "CC50 +/− SEM", "setting": "[1]; 5 mg/kg i.p., 15 min post dose", "value": "34.2 ± 1.5", "unit": "mA"}, {"measurement": "% change from vehicle (CC50)", "setting": "[1]; [3]", "value": 202, "unit": "%"}, {"measurement": "CC50 +/− SEM", "setting": "[1]; [3]", "value": "71.5 ± 1.0", "unit": "mA"}, {"measurement": "% change from vehicle (CC50)", "setting": "[1]; [4]", "value": 650, "unit": "%"}, {"measurement": "CC50 +/− SEM", "setting": "[1]; [4]", "value": "177.5 ± 0.7", "unit": "mA"}, {"measurement": "% change from vehicle (CC50)", "setting": "[1]; [5]", "value": 1157, "unit": "%"}, {"measurement": "CC50 +/− SEM", "setting": "[1]; [5]", "value": "297.5 ± 0.7", "unit": "mA"}, {"measurement": "% change from vehicle (CC50)", "setting": "[1]; [6]", "value": ">1168", "unit": "%"}, {"measurement": "CC50 +/− SEM", "setting": "[1]; [6]", "value": ">300.0", "unit": "mA"}, {"measurement": "CC50 +/− SEM", "setting": "[2]", "value": ">114", "unit": "mA"}, {"measurement": "tonic hindlimb convulsions in treatment group", "setting": "[2]; 6 animals", "value": "did not have any convulsions"}]}
